Marks after values point to notes of the source that are not given here.
Tested on: spontaneous motion activity of rats
Experiment: Depression of spontaneous motion activity (SMA) in "open field" test
Assay type: in vivo
Conditions: for Spontaneous activity (total values) b) after haloperidol administration: rats, i/p., open field 2 minutes, 10 minutes after administration, M±σ
Description: The presently-known clinical methods of haloperidol administration are: intravenous, intramuscular and oral. […] In theory, it is possible to improve the efficacy of the medicine, to reduce the single-administration dosage (through elimination of the effect of “first passage” through the liver) and to alleviate adverse somatic side effects.
The Applicant used pharmacological combination of intraperitoneally (i/p.) administered haloperidol with nasally applied CO-generating composition.
The experiments were performed on 24 puberty-age white rats (of no particular breed), body mass: 100-120 grams. Depression in SMA of the animals, as produced by i/p. drug administration, was compared with SMA depression produced by i/p. administration combined with nasal administration of CO-generating composition on the basis of a hem-oxygenase enzyme form. SMA of each animal was evaluated as total sum of values obtained within 2 minutes of “open field” test (in terms of the number of poles/supports, number of ring exercises and cleanings), prior to drug administration, and 10 minutes after drug administration.
The experimental animals were subdivided into 4 groups:
Group No. 1: controls (6 animals), no exposure;
Group No. 2: haloperidol (7 animals), i/p., 0.2 mg/kg;
Group No. 3: haloperidol (5 animals), i/p., 0.05 mg/kg;
Group No. 4: haloperidol (6 animals), i/p., 0.05 mg/kg, in pharmacological combination with CO-generating composition.
Haloperidol was administered by i/p. route within the physiological solution; CO-generating composition was administered nasally.

[1] = preliminary studies, intraperitoneal, 0.2 mg/kg

O=C(CCCN1CCC(O)(c2ccc(Cl)cc2)CC1)c1ccc(F)cc1 [haloperidol]
Persistence of haloperidol-dependant depression in motive responses [1]: 53.5 ± 7.7 min
Time to development of haloperidol-dependant depression in motive responses [1]: 4.2 ± 1.8 min
Spontaneous activity (total values) b) after haloperidol administration (0.05 mg/kg): 24 ± 3**^)
Spontaneous activity (total values) b) after haloperidol administration (0.2 mg/kg): 3 ± 1*^)

— patent publication US20080207600A1, “Pharmaceutical Combination for the Treatment of Cns Functional Disorders” (priority 2004, published 2008)
